Results on 20 compounds are retold here after ChEMBL document CHEMBL3779849, “Exploration of the P3 region of PEXEL peptidomimetics leads to a potent inhibitor of the Plasmodium protease, plasmepsin V” (Bioorg Med Chem, 2016).

Assay [1] in a line: Inhibition of 2.5 ng recombinant FLAG-tagged Plasmodium vivax PMV expressed in High Five insect cells assessed as fluorogenic substrate cleavage using 12 uM DABCYL-RNKRTLAQKQ-E-EDANS as fluorogenic substrate after 120 mins by fluorescence plate reader method.
Assay [2] relates to Plasmodium falciparum. Description: Antimalarial activity against ring-stage Plasmodium falciparum 3D7 infected in human erythrocytes assessed as parasite viability after 72 hrs by LDH assay. The class given is functional, organism-based. As to conditions: 3D7, 72 h.
Assay [3] deals with HepG2. The assay can be described thus: Cytotoxicity against human HepG2 cells assessed as cell viability after 48 hrs by Cell Titer-Glo assay. The class given is cell-based. The conditions noted are these: HepG2, 48 h.
Assay [4] deals with Plasmepsin V (Plasmodium falciparum (isolate 3D7)) (UniProt Q8I6Z5). Description: Inhibition of PMV in trophozoite stage of Plasmodium flaciparum 3D7 expressing PfEMP3-GFP infected in human erythrocytes assessed as PEXEL processing of PfEMP3 at 20 uM after 5 hrs by Western blot method. The class given is cell-based. The conditions noted are these: Plasmodium falciparum 3D7.
Plasmepsin V (Plasmodium falciparum (isolate 3D7)), sequence (Q8I6Z5 whole entry, looked up): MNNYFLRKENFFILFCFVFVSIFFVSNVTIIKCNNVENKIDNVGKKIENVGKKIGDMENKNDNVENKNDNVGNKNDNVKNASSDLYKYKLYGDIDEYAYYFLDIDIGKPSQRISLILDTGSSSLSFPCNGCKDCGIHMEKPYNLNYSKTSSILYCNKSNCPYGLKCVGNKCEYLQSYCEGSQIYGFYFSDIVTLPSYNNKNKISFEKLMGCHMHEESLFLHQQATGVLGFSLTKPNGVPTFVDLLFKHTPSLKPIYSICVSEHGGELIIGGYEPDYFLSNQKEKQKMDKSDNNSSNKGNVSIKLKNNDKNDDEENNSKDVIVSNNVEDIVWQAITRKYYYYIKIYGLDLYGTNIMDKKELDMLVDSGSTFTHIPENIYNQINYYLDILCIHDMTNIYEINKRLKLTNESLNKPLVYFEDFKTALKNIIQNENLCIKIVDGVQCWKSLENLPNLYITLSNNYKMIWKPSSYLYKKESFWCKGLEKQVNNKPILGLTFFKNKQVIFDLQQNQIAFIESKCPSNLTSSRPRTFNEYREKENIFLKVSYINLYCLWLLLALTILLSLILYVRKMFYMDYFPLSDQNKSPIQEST
Assay [5] relates to Plasmodium falciparum. Description: Antimalarial activity against Plasmodium falciparum 3D7 infected in human erythrocytes assessed as parasite viability after 72 hrs by flow cytometry. The class given is functional, organism-based. The conditions noted are these: 3D7, 72 h.
The target in assay [6] is Plasmepsin V (Plasmodium falciparum (isolate 3D7)) (UniProt Q8I6Z5). Description: Inhibition of PMV in trophozoite stage of Plasmodium flaciparum 3D7 expressing PfEMP3-GFP infected in human erythrocytes assessed as PEXEL processing of PfEMP3 at 1 to 20 uM after 5 hrs by Western blot method. The conditions noted are these: Plasmodium falciparum 3D7. The class given is cell-based.

A short description of assay [7]: Inhibition of 1 ng recombinant FLAG-tagged Plasmodium vivax PMV expressed in High Five insect cells assessed as fluorogenic substrate cleavage using 7.5 uM DABCYL-RNKRTLAQKQ-E-EDANS as fluorogenic substrate after 120 mins by fluorescence plate reader method.
Assay [8] addresses Plasmepsin V (Plasmodium falciparum (isolate 3D7), UniProt Q8I6Z5). The assay can be described thus: Inhibition of Plasmodium falciparum PMV assessed as fluorogenic substrate cleavage using DABCYL-RNKRTLAQKQ-E-EDANS as fluorogenic substrate after 120 mins by fluorescence plate reader method.
Assay [9] in a line: Ratio of EC50 for ring-stage Plasmodium falciparum 3D7 to IC50 for recombinant FLAG-tagged Plasmodium vivax PMV.

Structures are written as SMILES. The source made the active and inactive calls. The rule behind the calls is not given here. Non-standard residues stand in square brackets, D forms with d. Residues, ends and D or L forms follow the SMILES beside them. *: point of attachment. Phe(4-guanidino) = N=C(N)Nc1ccc(C[C@H](N)C(=O)O)cc1; Arg(NO2) = N=C(NCCC[C@H](N)C(=O)O)N[N+](=O)[O-]; Phe(4-NH2) = Nc1ccc(C[C@H](N)C(=O)O)cc1; Sta = CC(C)C[C@H](N)[C@@H](O)CC(=O)O; Arg(Me) = CNC(=N)NCCC[C@H](N)C(=O)O; Cit = NC(=O)NCCC[C@H](N)C(=O)O; NHPhenethyl = c1ccc(CCN*)cc1; Orn = NCCC[C@H](N)C(=O)O; Cbz = O=C(OCc1ccccc1)*; Ms = CS(=O)(=O)* Some results are limits rather than exact numbers.

Plasmepsin V, sequence (Q8I6Z5 whole entry): as the sequence (Q8I6Z5 whole entry, looked up) above

As for `CNC(=N)NCCC[C@H](NC(=O)OCc1ccccc1)C(=O)N[C@H](C(=O)N[C@@H](CC(C)C)[C@@H](O)CC(=O)NCCc1ccccc1)C(C)C` (Cbz-[Arg(Me)]-Val-[Sta]-NHPhenethyl), the IC50 in [1] was determined as 37.7 µM. Further, the figures for the EC50 in [2] and in assay [3] were 12.7 µM and more than 50 µM, respectively.

In the case of `CC(C)C[C@H](NC(=O)[C@@H](NC(=O)[C@H](CCCNC(=N)NC#N)NC(=O)OCc1ccccc1)C(C)C)[C@@H](O)CC(=O)NCCc1ccccc1`, the IC50 in [1] is more than 50 µM.

Take `CC(C)C[C@H](NC(=O)[C@@H](NC(=O)[C@H](Cc1cccc(NC(=N)N)c1)NC(=O)OCc1ccccc1)C(C)C)[C@@H](O)CC(=O)NCCc1ccccc1`: the IC50 in [1] is more than 50 µM.

Turning to `CC(C)C[C@H](NC(=O)[C@@H](NC(=O)[C@H](CCCNS(C)(=O)=O)NC(=O)OCc1ccccc1)C(C)C)[C@@H](O)CC(=O)NCCc1ccccc1` (Cbz-[Orn](Ms)-Val-[Sta]-NHPhenethyl), in assay [1], the IC50 was more than 50 µM.

For the compound `CC(=O)NCCC[C@H](NC(=O)OCc1ccccc1)C(=O)N[C@H](C(=O)N[C@@H](CC(C)C)[C@@H](O)CC(=O)NCCc1ccccc1)C(C)C` (Cbz-[Orn](Ac)-Val-[Sta]-NHPhenethyl), the IC50 in assay [1] is more than 50 µM.

As to `CONC(=N)NCCC[C@H](NC(=O)OCc1ccccc1)C(=O)N[C@H](C(=O)N[C@@H](CC(C)C)[C@@H](O)CC(=O)NCCc1ccccc1)C(C)C`, the IC50 in assay [1] was found to be 18 µM. In addition, the EC50 was 1.97 µM in [2] and more than 50 µM in assay [3].

Take `CC(C)C[C@H](NC(=O)[C@@H](NC(=O)[C@H](CCCNC(=N)NO)NC(=O)OCc1ccccc1)C(C)C)[C@@H](O)CC(=O)NCCc1ccccc1`: the IC50 in [1] is 3.88 µM. Moreover, the EC50 was 3.97 µM in assay [2] and more than 50 µM in assay [3]. For the same compound, the inhibition entry in assay [4] was “inactive”.

With `CC(C)C[C@H](NC(=O)[C@@H](NC(=O)[C@H](CCCNC(=N)N[N+](=O)[O-])NC(=O)OCc1ccccc1)C(C)C)[C@@H](O)CC(=O)NCCc1ccccc1` (Cbz-[Arg(NO2)]-Val-[Sta]-NHPhenethyl), the IC50 in assay [1] was more than 50 µM.

Turning to `CC(C)C[C@H](NC(=O)[C@@H](NC(=O)[C@H](CCCNC(C)C)NC(=O)OCc1ccccc1)C(C)C)[C@@H](O)CC(=O)NCCc1ccccc1`, in assay [1], the IC50 is more than 50 µM.

On to `CC(C)C[C@H](NC(=O)[C@@H](NC(=O)[C@H](CCC(=O)NC(=N)N)NC(=O)OCc1ccccc1)C(C)C)[C@@H](O)CC(=O)NCCc1ccccc1`, for which the IC50 in assay [1] is 41.6 µM. Also, the EC50 in [2] is 3.33 µM; in assay [3], more than 50 µM.

For the compound `CC(C)C[C@H](NC(=O)[C@@H](NC(=O)[C@H](CCONC(=N)N)NC(=O)OCc1ccccc1)C(C)C)[C@H](O)CC(=O)NCCc1ccccc1`, the IC50 in [1] worked out at 2.74 µM. For the same compound, the EC50 in assay [2] is 5.65 µM; in assay [3] it was more than 50 µM. Also, the inhibition entry in assay [4] is “inactive”.

In the case of `CC(C)C[C@H](NC(=O)[C@@H](NC(=O)[C@H](CCONC(=N)N)NC(=O)OCc1ccccc1)C(C)C)[C@@H](O)CC(=O)NCCc1ccccc1`, the EC50 in [5] was 0.4 µM; in [2] it was 0.229 µM; in assay [3], more than 50 µM. Moreover, the IC50 in [1] was determined as 0.01 µM; in assay [7] it was 0.0016 µM; in assay [8], 0.0008 µM. The inhibition entry in assay [6] is “Active”. Further, in assay [9], the Ratio worked out at 25.

As to `CC(C)C[C@H](NC(=O)[C@@H](NC(=O)[C@H](Cc1ccc(N)cc1)NC(=O)OCc1ccccc1)C(C)C)[C@@H](O)CC(=O)NCCc1ccccc1` (Cbz-[Phe(4-NH2)]-Val-[Sta]-NHPhenethyl), in assay [1], the IC50 was more than 50 µM.

Take `CC(C)C[C@H](NC(=O)[C@@H](NC(=O)[C@H](CCCNC(N)=O)NC(=O)OCc1ccccc1)C(C)C)[C@@H](O)CC(=O)NCCc1ccccc1` (Cbz-[Cit]-Val-[Sta]-NHPhenethyl): the 50% inhibitory concentration (IC50) in [1] was more than 50 µM.

`CCN(CC)CCCC(C)Nc1ccnc2cc(Cl)ccc12` (stereo not given) [CHLOROQUINE]: the EC50 in [2] amounted to 0.012 µM.

Turning to `CC(C)C[C@H](NC(=O)[C@@H](NC(=O)[C@H](Cc1cccc(N)c1)NC(=O)OCc1ccccc1)C(C)C)[C@@H](O)CC(=O)NCCc1ccccc1`, the IC50 in [1] is more than 50 µM.

As for `CC(C)C[C@H](NC(=O)[C@@H](NC(=O)[C@H](Cc1ccc(NC(=N)N)cc1)NC(=O)OCc1ccccc1)C(C)C)[C@@H](O)CC(=O)NCCc1ccccc1` (Cbz-[Phe(4-guanidino)]-Val-[Sta]-NHPhenethyl), in assay [1], the IC50 is more than 50 µM.

`CC(=N)NCCC[C@H](NC(=O)OCc1ccccc1)C(=O)N[C@H](C(=O)N[C@@H](CC(C)C)[C@@H](O)CC(=O)NCCc1ccccc1)C(C)C`: the IC50 in assay [1] was determined as 40.3 µM. In addition, the EC50 in [2] is 21.4 µM; in assay [3] it was more than 50 µM. Also, the inhibition result in assay [4] was “inactive”.

As for `CC(C)C[C@H](NC(=O)[C@@H](NC(=O)[C@H](CCCN(C)C(=N)N)NC(=O)OCc1ccccc1)C(C)C)[C@@H](O)CC(=O)NCCc1ccccc1`, the IC50 in assay [1] is more than 50 µM.

Turning to `CC(C)C[C@H](NC(=O)[C@@H](NC(=O)[C@H](CCCNC(=N)N)NC(=O)OCc1ccccc1)C(C)C)[C@@H](O)CC(=O)NCCc1ccccc1` (Cbz-Arg-Val-[Sta]-NHPhenethyl), the IC50 in assay [1] was found to be 0.128 µM. Also, the EC50 in assay [2] was 3.26 µM; in [3] it was more than 50 µM. Moreover, the inhibition entry in assay [4] was “Active”.
